Source: paper PMC8232704, “Hydrophobic Tagging-Mediated Degradation of Transcription Coactivator SRC-1” (International Journal of Molecular Sciences, 2021)
Bridge positions count the residues as written; N and C are the ends. Square brackets hold non-standard residues; d marks the D form. Peptide text beside a SMILES is read from it. N(1-adamantyl)Gly = O=C(O)CNC12CC3CC(CC(C3)C1)C2; Cha = N[C@@H](CC1CCCCC1)C(=O)O; S5 = C=CCCC[C@](C)(N)C(=O)O; PEG3 = NCCOCCOCCOCCC(=O)O

What was measured:
[1] = biological target: T1, PAS-B domain of human SRC-1 (residues 257–385) (Homo sapiens, UniProt Q15788); assay: Competitive fluorescence polarization (FP) assay, fluorescein-labeled STAT-6 peptide binding to SRC-1; conditions: 100 nM fluorescein-labeled 15-mer STAT-6 peptide, 1 μM PAS-B domain of SRC-1, HEPES pH 7.4, SD from three independent experiments
T1 construct: PAS-B domain of human SRC-1 (residues 257–385); His6; made in house; host or cells: Rosetta E. coli
T1 sequence (Q15788 257-385): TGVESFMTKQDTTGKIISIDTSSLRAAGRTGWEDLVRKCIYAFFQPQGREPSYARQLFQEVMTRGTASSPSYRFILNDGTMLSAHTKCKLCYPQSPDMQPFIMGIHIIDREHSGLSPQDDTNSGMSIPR
Description: A plasmid expressing the PAS-B domain of human SRC-1 (residues 257–385) tagged with His6 was provided by John A. Robinson (University of Zürich at Switzerland). It was transformed into Rosetta E. coli cells. SRC-1 protein purification was performed as described previously.
After incubating 100 nM of fluorescein-labeled 15-mer STAT-6 peptide with 1 μM of PAS-B domain of SRC-1 in a binding buffer (50 mM HEPES pH 7.4, 150 mM NaCl, 3.4 mM EDTA, and 0.01% Tween 20) in a black Greiner 384-well plate for 30 min, indicated concentrations of YL2 and YL2-HyT1 through YL2-HyT6 were added to each well. After incubation for another 1.5 h, fluorescence polarization was measured on a Tecan Infinite F200 Pro microplate reader (excitation wavelength: 485 nm, emission wavelength: 535 nm). The Ki values of the compounds in the competition assay were determined using the following equation [43]. (1) Ki=[I]50/[L]50/KD+[P]0/KD+1 where [I]50 is the concentration of the free inhibitor at 50% inhibition, KD is the dissociation constant of the protein–ligand complex, [L]50 is the concentration of the free labeled ligand at 50% inhibition, and [P]0 is the concentration of the free protein at 0% inhibition.

[2] = system: MDA-MB-231 cells; assay: Matrigel transwell invasion assay; format: cell-based, human; conditions: Matrigel chambers, 24 h
Description: Matrigel invasion chambers (Corning 354480) were placed in 24-well plates and rehydrated with FBS-free DMEM medium at 37 °C in a CO2 incubator for 2 h. After removing the medium, 4 × 10^4 cells of MDA-MB-231 were seeded into Matrigel invasion chambers and control chambers (Corning, 354578) with 125 µL of Opti-MEM medium. Then another 125 µL of each compound (YL2, adamantane, ND1-YL2, or YL2-HyT6) in Opti-MEM medium was added to each chamber. The bottom of the well was filled with 500 µL of DMEM medium containing 10% FBS 1% PS. The chambers were then incubated at 37 °C with 5% CO2 for 24 h. After removing the medium, the chambers were washed with cold PBS. Then noninvading cells on the upper surface of the membrane were removed by scrubbing with a cotton swab. Cells on the bottom side of the membrane were fixed with 500 µL of 4% formaldehyde for 10 min at rt. After washing with PBS, the bottom side of the chamber was stained with 500 µL of Hoechst 33342 (5 µg/mL) for 5 min at 37 °C in the CO2 incubator. […] The percent invasion (% invasion) of each sample was determined with the following equation:(3) % Invasion=Mean # of cells invading through Matrigel chamber membrane/Mean # of cells migrating through control chamber membrane×100

Ki [1]: 237 nM
SMILES: CC(C)C[C@H](NC(=O)CCOCCOCCOCCNC(=O)CNC12CC3CC(CC(C3)C1)C2)C(=O)N[C@@H](CC(C)C)C(=O)N1CCC[C@H]1C(=O)N1CCC[C@H]1C(=O)N[C@H](C(=O)N[C@@H](CCC(=O)O)C(=O)N[C@@H](CCC(N)=O)C(=O)N[C@@H](CC(=O)O)C(=O)N[C@@H](CC(C)C)C(=O)N[C@@]1(C)CCC/C=C\CCC[C@@](C)(C(=O)N[C@@H](Cc2ccc(O)cc2)C(N)=O)NC(=O)[C@H](CC2CCCCC2)NC(=O)[C@H](CC(C)C)NC(=O)[C@H](CCCCN)NC1=O)[C@@H](C)O [YL2-HyT6] (H-[N(1-adamantyl)Gly][PEG3]LLPPTEQDL[S5]KL[Cha][S5]Y-NH2; staple (Z) 12-16; C-terminus assumed)
Cell invasion [2]: remarkably decreased the invasion
